Assay results reported in ChEMBL document CHEMBL1275561, “In vitro activities of doripenem, a new broad-spectrum carbapenem, against recently collected clinical anaerobic isolates, with emphasis on the Bacteroides fragilis group” (2008).

Tested on: Clostridium perfringens
Test: Antimicrobial activity against Clostridium perfringens assessed as resistant isolates by agar dilution method
Type: functional

Row | Compound | Activity [%]
1 | C[C@@H](O)[C@H]1C(=O)N2C(C(=O)O)=C(S[C@@H]3CN[C@H](C(=O)Nc4cccc(C(=O)O)c4)C3)[C@H](C)[C@H]12 | 0
2 | CC1(C)S[C@@H]2[C@H](NC(=O)[C@H](N)c3ccccc3)C(=O)N2[C@H]1C(=O)O [AMPICILLIN] | 0
3 | CO[C@@]1(NC(=O)Cc2cccs2)C(=O)N2C(C(=O)O)=C(COC(N)=O)CS[C@@H]21 [CEFOXITIN] | 0
4 | CCC[C@@H]1C[C@@H](C(=O)N[C@@H]([C@H]2O[C@H](SC)[C@H](O)[C@@H](O)[C@H]2O)[C@H](C)Cl)N(C)C1 [CLINDAMYCIN] | 0
5 | C[C@@H](O)[C@H]1C(=O)N2C(C(=O)O)=C(S[C@@H]3CN[C@H](CNS(N)(=O)=O)C3)[C@H](C)[C@H]12 [DORIPENEM] | 0
6 | C[C@@H](O)[C@H]1C(=O)N2C(C(=O)O)=C(SCCNC=N)C[C@H]12 [IMIPENEM ANHYDROUS] | 0
7 | CC(=O)NC[C@H]1CN(c2ccc(N3CCOCC3)c(F)c2)C(=O)O1 [LINEZOLID] | 0
8 | C[C@@H](O)[C@H]1C(=O)N2C(C(=O)O)=C(S[C@@H]3CN[C@H](C(=O)N(C)C)C3)[C@H](C)[C@H]12 [MEROPENEM] | 0
9 | Cc1ncc([N+](=O)[O-])n1CCO [METRONIDAZOLE] | 7.8
10 | CCN1CCN(C(=O)N[C@@H](C(=O)N[C@@H]2C(=O)N3[C@@H]2SC(C)(C)[C@@H]3C(=O)O)c2ccccc2)C(=O)C1=O [PIPERACILLIN] | 0
11 | CN[C@H](CC(C)C)C(=O)N[C@H]1C(=O)N[C@@H](CC(N)=O)C(=O)N[C@H]2C(=O)N[C@H]3C(=O)N[C@H](C(=O)N[C@H](C(=O)O)c4cc(O)cc(O)c4-c4cc3ccc4O)[C@H](O)c3ccc(c(Cl)c3)Oc3cc2cc(c3O[C@@H]2O[C@H](CO)[C@@H](O)[C@H](O)[C@H]2O[C@H]2C[C@](C)(N)[C@H](O)[C@H](C)O2)Oc2ccc(cc2Cl)[C@H]1O [VANCOMYCIN] | 0
